From PMC9671377, “Label-free affinity screening, design and synthesis of inhibitors targeting the Mycobacterium tuberculosis L-alanine dehydrogenase” (PLOS ONE, 2022)
≈ marks a conversion by molar mass, not a printed value. Where “and” joins values, the source holds several entries; their conditions need not be identical. Identical values can stand only once. Like-named read-outs stand apart in the source and are kept apart here.

Columns and labels:
[1] = target: T1, Mtb L-alanine dehydrogenase (AlaDH, Rv2780) (Mycobacterium tuberculosis, UniProt P9WQB1); format: binding; conditions: for Eluted protein amount relative to N6-methyl ado / Integrated band volume / Ratio against N6-methyl ado / Eluted AlaDH compared to N6-methyl ado: SDS gel densitometry; for Integrated band volume / Ratio against N6-methyl ado: Fig 3a
[2] = target: Mycobacterium tuberculosis L-alanine dehydrogenase (Mycobacterium tuberculosis, UniProt P9WQB1); experiment: biochemical; format: biochemical; conditions: for Ki: competitive inhibition mode vs NAD, value (S.D.) in table
[3] = target: Mtb L-alanine dehydrogenase (AlaDH) (Mycobacterium tuberculosis, UniProt P9WQB1); format: biochemical
[4] = tested on: Mtb aldehyde dehydrogenase (Rv0223c, AldDH); format: biochemical, Mycobacterium tuberculosis; conditions: 1 mM inhibitor, 1 mM NAD, 10 mM propionaldehyde
[5] = target: T2, human malate DH 2 (Homo sapiens, UniProt P40926); experiment: Activity assay against human malate DH 2; format: biochemical
T2 sequence (P40926 25-338): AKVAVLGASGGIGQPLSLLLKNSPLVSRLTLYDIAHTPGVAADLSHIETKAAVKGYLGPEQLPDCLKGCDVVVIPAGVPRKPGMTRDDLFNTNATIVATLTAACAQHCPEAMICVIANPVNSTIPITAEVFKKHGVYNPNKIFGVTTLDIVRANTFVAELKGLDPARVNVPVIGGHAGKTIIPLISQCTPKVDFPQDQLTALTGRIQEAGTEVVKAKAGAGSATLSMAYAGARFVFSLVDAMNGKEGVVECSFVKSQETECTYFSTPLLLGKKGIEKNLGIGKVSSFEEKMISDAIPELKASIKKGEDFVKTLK

[6] = target: T1, Mtb L-alanine dehydrogenase (AlaDH, Rv2780); conditions: cited from earlier work
[7] = tested on: Mtb in murine primary bone marrow-derived macrophages (BMDMs); format: cell-based, Mycobacterium tuberculosis H37Rv; conditions: 500 μM, 3 days
[8] = tested on: Mycobacterium tuberculosis H37Rv cells; experiment: Minimum inhibitory concentration assay (microfluidic agarose channel chip); format: cell-based
[9] = compound at 1 mM, SDS-PAGE of eluate

Chain of Mycobacterium tuberculosis L-alanine dehydrogenase (P9WQB1 whole entry, looked up): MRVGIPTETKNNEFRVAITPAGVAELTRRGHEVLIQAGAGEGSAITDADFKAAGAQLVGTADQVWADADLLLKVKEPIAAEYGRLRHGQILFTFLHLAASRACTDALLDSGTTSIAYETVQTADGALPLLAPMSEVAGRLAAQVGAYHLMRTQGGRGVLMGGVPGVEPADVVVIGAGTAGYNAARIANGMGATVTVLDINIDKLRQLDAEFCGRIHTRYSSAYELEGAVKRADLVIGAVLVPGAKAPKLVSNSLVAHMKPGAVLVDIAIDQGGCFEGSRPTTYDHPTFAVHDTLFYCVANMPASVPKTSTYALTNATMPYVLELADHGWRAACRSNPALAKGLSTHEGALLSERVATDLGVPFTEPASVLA
T1 sequence (P9WQB1 whole entry, looked up): as above
Chain of Mtb L-alanine dehydrogenase (AlaDH) (P9WQB1 whole entry, looked up): as above

Q: Which “Eluted protein amount relative to N6-methyl ado” value [1] does the source give for `CC(C)C(=O)Nc1ncnc2c1ncn2[C@@H]1O[C@H](CO)[C@@H](O)[C@H]1O` [N6-isobutyoyl adenosine] here?
A: Its value is 70%.

Q: What about the Integrated band volume [1] of the same molecule?
A: Its Integrated band volume is 29,087.

Q: And the “Ratio against N6-methyl ado” value [1]?
A: Its value is 0.70.

Q: What about the Ki [2] of the same molecule?
A: The Ki was 3710 µM.

Q: Which “Elution of AlaDH from F3GA dye resin (displacement of the dye) in DLAC” value [1] does the source give for `Cc1nc(N)c2ncn([C@@H]3O[C@H](CO)[C@@H](O)[C@H]3O)c2n1` [D28, C2-methyl adenosine] here?
A: The value was “did not show displacement”.

Q: What about the “Initial velocity (vi) of the AlaDH reaction with compound” value [3] of the same molecule?
A: Its value is 1.769 x10^-3 [NADH]OD340/min.

Q: What about the “Reduction of initial velocity (vi) of the AlaDH reaction” value [3] of the same molecule?
A: Its value is 4%.

Q: With `CC(=O)Nc1ncnc2c1ncn2[C@@H]1O[C@H](CO)[C@@H](O)[C@H]1O` [N6-acetyl ado] as the molecule, how does the “Eluted protein amount relative to N6-methyl ado” value [1] read?
A: The value was 12%.

Q: And the Integrated band volume [1]?
A: The Integrated band volume was 5,015.

Q: And the “Ratio against N6-methyl ado” value [1]?
A: Its value is 0.12.

Q: And the “Inhibitory effect on AlaDH activity” value [2]?
A: Its value is “did not reveal any inhibitory effect”.

Q: Which results are given for `CC(C)CNc1ncnc2c1ncn2[C@@H]1O[C@H](CO)[C@@H](O)[C@H]1O` [N6-isobutyl adenosine]?
A: Integrated band volume [1]: 143,252; Ratio against N6-methyl ado [1]: 3.45; Eluted AlaDH compared to N6-methyl ado ([1]; listed as N6-isobutyl ado): 3.45 fold and ~ 3.5 fold; Ki [2]: 80 µM and 79 µM; vi of wild-type AlaDH after adding compound ([3]; […], without compound vi 1.922 x10^-3): 0.734 x10^-3 [NADH]OD340/min; Inhibition of AldDH activity [4]: no inhibition; Inhibition of human malate DH 2 activity [5]: no noticeable inhibition

Q: Which results are given for `CCCNc1ncnc2c1ncn2[C@@H]1O[C@H](CO)[C@@H](O)[C@H]1O` [N6-propyl adenosine]?
A: Eluted AlaDH compared to N6-methyl ado [1]: 3.05 fold; Integrated band volume [1]: 126,378; Ratio against N6-methyl ado [1]: 3.05; Ki [2]: 110 µM and 113 µM; melting point: 162 to 165.4 °C

Q: Which results are given for `Nc1ncnc2c1ncn2[C@@H]1O[C@H](COP(=O)(O)OP(=O)(O)OP(=O)(O)O)[C@@H](O)[C@H]1O` [ATP, reference compound]?
A: Elution of AlaDH from F3GA dye resin (displacement of the dye) in DLAC [1, 9]: eluted the target AlaDH enzyme; Binding in DLAC assay (previous data) [6]: bound strongly

Q: For `NC(=O)C1=CN([C@@H]2O[C@H](COP(=O)(O)OP(=O)(O)OC[C@H]3O[C@@H](n4cnc5c(N)ncnc54)[C@H](O)[C@@H]3O)[C@@H](O)[C@H]2O)C=CC1` [NADH], which “Binding in DLAC assay (previous data)” value [6] is on record?
A: The value was “bound strongly”.

Q: With `CNc1ncnc2c1ncn2[C@@H]1O[C@H](CO)[C@@H](O)[C@H]1O` [D30, N6-methyl adenosine] as the molecule, how does the Integrated band volume [1] read?
A: The Integrated band volume was 41,418.

Q: What about the “Ratio against N6-methyl ado” value [1] of the same molecule?
A: Its value is 1.

Q: What about the “Elution of AlaDH from F3GA dye resin (displacement of the dye) in DLAC” value [1, 9] of the same molecule?
A: The value was “displaced the F3GA dye from AlaDH”.

Q: And the “Intracellular growth of Mtb in BMDMs” value [7]?
A: The value was “significantly decreased”.

Q: What about the Ki [2] of the same molecule?
A: Its Ki is 860 µM and 861 µM.

Q: What about the “Reduction of initial velocity (vi) of the AlaDH reaction” value ([3]; 1 mM inhibitor, 1 mM NAD, 17 mM L-alanine) of the same molecule?
A: Its value is 33%.

Q: And the “Initial velocity (vi) of the AlaDH reaction with compound” value ([3]; no inhibition vi 1.842x10^-3, 1 mM inhibitor)?
A: The value was 1.231x10^-3 [NADH]OD340/min.

Q: And the MIC [8]?
A: The MIC was about 10 µg/mL (≈ 35.6 µM).

Q: What about the “Inhibition of AldDH activity” value [4] of the same molecule?
A: Its value is “none”.

Q: What about the “Inhibition of human malate DH 2 activity” value [5] of the same molecule?
A: The value was “no noticeable inhibition”.

Q: Which results are given for `CCNc1ncnc2c1ncn2[C@@H]1O[C@H](CO)[C@@H](O)[C@H]1O` [N6-ethyl adenosine]?
A: Eluted AlaDH compared to N6-methyl ado [1]: 2.12 fold; Integrated band volume [1]: 87,674; Ratio against N6-methyl ado [1]: 2.12; Ki [2]: 520 µM and 521 µM; melting point: 197.1 to 198.4 °C
